Assays:
[1] = tested on: Ramos Burkitt’s lymphoma cells; assay: Metabolic activity assay (MTS), Ramos; format: cell-based, human; details: 24 h; for residual metabolic activity relative to control: 50 µM; for cytotoxicity group (Figure 3A) / viability at 100 µM: 100 µM; for viability at 100 µM: Homo sapiens, read-out: residual metabolic activity relative to untreated control
Description: When investigating the potency of selected serine protease inhibitors to induce cell death in human B lymphoma cells, we identified a set of compounds cytotoxic for Burkitt’s lymphoma. Using a metabolic activity assay (MTS), we evaluated the proliferation rate of Ramos Burkitt’s lymphoma cells, in the presence of serine protease inhibitors. Cells were treated for 24 h with the compound of interest at concentrations of 100 µM (1–13, 15, 16) or 50 µM (14). After a comparison of metabolic activity relative to that in the untreated control, three groups with distinct modes of action were determined (Figure 3A). […] The second group (compounds 1–3, 5, 7 and 13) caused a moderate decrease (50% to 80%) relative to untreated cells. The last group of compounds (11, 15, 16) severely impaired the metabolic activity, such that it fell to under 6%.
(§1) Cells (1×10^5 cells/mL for Ramos, Daudi, U937 and Jurkat, and 1×10^6 cells/mL for PBMC) were treated with the appropriate amounts of compounds of interest or corresponding vehicle (control cells), then seeded in triplicate in 96 well plates. The metabolic activity was assessed using the CellTiter 96® Aqueous One Solution Cell Proliferation Assay (Promega, Madison/WI, USA), in accordance with the manufacturer’s instructions.

[2] = tested on: human Burkitt’s lymphoma (Daudi); assay: Metabolic activity assay (MTS), Daudi; format: cell-based; details: 50 µM, 24 h
Description: Compounds 11, and 14–16 were further tested for selective cytotoxicity. The experiments were conducted on freshly isolated primary peripheral blood mononuclear cells (PBMC) and three other haematological cancers: human T cell leukaemia (Jurkat), human histiocytic lymphoma (U937) and human Burkitt’s lymphoma (Daudi). An MTS assay was performed following 24 h of treatment with the compound of interest at 50 µM. […] The inhibition of proliferation in Ramos cells, mediated with compounds 15 and 16, was concentration dependent.
as §1

Ramos cells = assay: Annexin V/7-AAD assay; format: cell-based, human; details: 16 h; for percentage of Annexin V positive cells: 50 µM, untreated 4% (Figure 5A)
Description: We used a PE Annexin V Apoptosis Detection Kit I (BD Biosciences) in accordance with the manufacturer’s instructions. Put briefly, Ramos cells were, following their treatment with the compound of interest, washed with cold PBS and resuspended in 1× binding buffer at a […] concentration. 100 µL of cell suspension was transferred to a 5 mL tube and 5 µL of both PE Annexin V and 7-AAD was added. The suspension was gently vortexed and incubated for 15 min at room temperature in the dark. Following this, 400 µL of 1× binding buffer was added and samples were analysed using a FACScalibur flow cytometer.

[3] = tested on: procaspase-3 cleavage in Ramos cells; assay: Western blot analysis of caspase-3 processing; format: cell-based, human; details: compound 50 µM, zVad-fmk 50 µM
Description: Ramos cells were seeded in 6-well culture plates at a concentration of 1×10^6 cells/mL and treated with the compound of interest or corresponding vehicle for 1 h, 2 h or 6 h. After the indicated time points, cells were harvested, washed in ice-cold PBS and lysed in modified RIPA buffer (50 mM Tris-HCl, pH 7.4, 150 mM NaCl, 1% NP−40, 0.25% Na-deoxycholate, 1 mM EDTA, 1 µg/mL aprotinin, 1 mM PMSF and 1× Halt Phosphatase inhibitor cocktail (Thermo Scientific, Pierce Biotechnology, IL, USA)). The lysates were sonicated, rocked on ice for 30 min and centrifuged at 13,000 rpm at 4°C for 15 min. Protein samples were electrophoresed in SDS-polyacrylamide gels and then transferred to nitrocellulose membranes. The primary antibodies used were against ubiquitin, phospho-IκBα, IκBα, p65 and caspase-3 (Cell Signaling, Danvers/MA, USA), and p105/p50 (Santa Cruz Biotechnology, Inc., Santa Cruz/CA, USA), and ß-actin (Sigma-Aldrich). Following incubation with the primary antibody, membranes were washed six times and incubated for 1 h at room temperature with the corresponding dilution of the appropriate secondary antibody conjugated with horseradish peroxidase (Upstate, Temecula, CA, USA). The immunoreactivity of respective proteins of interest was determined by chemiluminescence using the SuperSignal West Femto substrate (Pierce, IL, USA), in accordance with the manufacturer's instructions. […]

[4] = target: T1, chymotrypsin-like activity of human 20S proteasome (Homo sapiens, UniProt P28074); assay: Proteasome activity measurement, chymotrypsin-like; format: biochemical; details: purified human 20S proteasome, Suc-Leu-Leu-Val-Tyr-AMC, uncompetitive
T1 construct: purchased Boston Biochem, Inc
Description: (§2) Suc-Leu-Leu-Val-Tyr-AMC, Bz-Val-Gly-Arg-AMC and Z-Leu-Leu-Glu-AMC (Bachem, Bubendorf, Switzerland) were used for the chymotrypsin-like, trypsin-like and caspase-like activites, respectively. Assay buffer consisted of TE buffer (20 mM Tris (pH = 8.0), 0.5 mM EDTA, 0.03% SDS). Substrate hydrolysis was continuously monitored at 37°C with an automated microplate reader (Tecan Safire^2). Measured fluorescence values (RFU) were plotted versus time with nonlinear regression to fit a Michaelis-Menten plot.
(§3) For the Ki determination, 25 µL of substrate at three concentrations and 25 µL of inhibitor of interest also at three different concentrations were added to the wells of a white microplate. The reaction was initiated with 50 µL of the enzyme in the assay buffer. Flourescence of the AMC release was continuously monitored at 420 nm with 320 nm excitation.
(§4) Km and Ki were calculated using SigmaPlot 11 (Enzyme Kinetics Module 1.3) and are presented as the mean of three independent experiments.

[5] = target: T2, caspase-like activity of human 20S proteasome (Homo sapiens, UniProt P28072); assay: Proteasome activity measurement, caspase-like; format: biochemical; details: purified human 20S proteasome, Z-Leu-Leu-Glu-AMC, uncompetitive
T2 construct: purchased Boston Biochem, Inc
Description: as §2, §3, §4

20S proteasome = target: T3, 20S proteasome (Homo sapiens, UniProt P28072+P28074+Q99436); assay: Rapid dilution assay (reversibility); format: biochemical
T3 construct: purchased Boston Biochem, Inc
Description: The enzyme-inhibitor complex was diluted 100-fold with the substrate of interest to a final volume of 200 µL, initiating the reaction. In the case of reversibility of the inhibitor the residual enzyme activity was expected to be around 90%.

Thrombin = target: Thrombin; design: method as in PMID 15497744, PMID 15544050, PMID 17484277; details: amidolytic assay, chromogenic substrate; determined previously; cited from earlier work
Trypsin = target: Trypsin; design: method as in PMID 15497744, PMID 15544050, PMID 17484277; details: amidolytic assay, chromogenic substrate; determined previously; cited from earlier work
[6] = tested on: Ramos Burkitt’s lymphoma cells; assay: Metabolic activity assay (MTS), Ramos; format: cell-based; details: Homo sapiens, 24 h, read-out: IC50, inhibition of proliferation (metabolic activity)
α-chymotrypsin = α-chymotrypsin (Bos taurus, UniProt P00766); assay: α-Chymotrypsin inhibition assay
Description: In short, a 1 nM solution of α-chymotrypsin was mixed with various concentrations of the substrate Suc-Ala-Ala-Pro-Phe-AMC. All the solutions were prepared in 144 mM Tris–HCl, pH 7.8. Substrate hydrolysis was monitored at 30°C on an automated Tecan Safire^2 microplate reader (Tecan, Mannedorf/Zürich, Switzerland). The initial rates of the reactions (ΔF/Δt) were measured immediately after the addition of the substrate (within 200 s) and plotted versus substrate concentration with nonlinear regression to fit a Michaelis-Menten plot. The curve fit and kinetic parameters (Km and v max) were calculated using GraphPad PRISM version 5.0 software (GraphPad Software, Inc., CA, USA). […] The initial velocities of the hydrolysis reactions were measured under the same conditions as described for the determination of Km. 50 µl of α-chymotrypsin solution was added to 50 µl of each inhibitor solution (prepared in 144 mM Tris–HCl, pH 7.8; final concentration 1 nM) and incubated at 30°C for 15 min. The reaction was initiated with the addition of 100 µl of substrate. […] The Ki values were determined as mean values of all measurements.

[7] = presence of zVADfmk 50 µM (Figure 5D)

With `N=C(N)N1CCC(CN(NS(=O)(=O)c2ccc3ccccc3c2)C(=O)N2CCCCC2)CC1` [Compound 15] the “residual metabolic activity relative to control” value [1] was “severe and selective decrease”, the “cytotoxicity group (Figure 3A)” value [1] was “severely cytotoxic (severely impaired the metabolic activity, such that it fell to under 6%)” and the viability at 100 µM [1] was under 6%. The “residual metabolic activity relative to control” value [2] was “severe and selective decrease”, the “percentage of Annexin V positive cells” value (Ramos cells) was 57% and the “compound-induced procaspase-3 cleavage after zVad-fmk pretreatment” value [3] was “completely blocked”. The “Ki ' chymotrypsin-like activity” value [4] was “Ki ' = 84±15 µM”, the “Ki ' caspase-like activity” value [5] was “Ki ' = 165±26 µM” and the “reversibility of proteasome inhibition” value (20S proteasome) was “reversibly inhibit”. The Ki (Thrombin) was 0.47 µM, the Ki (Trypsin) was 39 µM and the IC50 [6] was 18 µM. It also gave a Ki (α-chymotrypsin) of 27.6 µM.
For `N=C(N)N1CCC(CN(NS(=O)(=O)c2ccc3ccccc3c2)C(=O)N2CCCCCC2)CC1` [Compound 16], the “residual metabolic activity relative to control” value [1] was “severe and selective decrease”, the “cytotoxicity group (Figure 3A)” value [1] was “severely cytotoxic (severely impaired the metabolic activity, such that it fell to under 6%)” and the viability at 100 µM [1] was under 6%. The “residual metabolic activity relative to control” value [2] was “severe and selective decrease”, the “percentage of Annexin V positive cells” value (Ramos cells) was 39% and the “Annexin V positive cells (lower right quadrant)” value (Ramos cells; absence of zVADfmk (Figure 5D)) was 30%. For the same compound, the “living cells (lower left quadrant, Annexin V/7-AAD)” value (Ramos cells; absence of zVADfmk (Figure 5D)) was 62%, the “Annexin V positive cells (lower right quadrant)” value (Ramos cells; [7]) was 11% and the “living cells (lower left quadrant, Annexin V/7-AAD)” value (Ramos cells; [7]) was 82%. The “compound-induced procaspase-3 cleavage after zVad-fmk pretreatment” value [3] was “completely blocked”, the “Ki ' chymotrypsin-like activity” value [4] was “Ki ' = 37±13 µM” and the “Ki ' caspase-like activity” value [5] was “Ki ' = 70±3 µM”. For the same compound, the “reversibility of proteasome inhibition” value (20S proteasome) was “reversibly inhibit”, the Ki (Thrombin) was 0.5 µM and the Ki (Trypsin) was 66 µM. It also gave an IC50 [6] of 22 µM and a Ki (α-chymotrypsin) of 28.7 µM.

Reference: PMC3408433, “Selective Cytotoxicity of Amidinopiperidine Based Compounds Towards Burkitt’s Lymphoma Cells Involves Proteasome Inhibition” (PLoS ONE, 2012)
